Measured values as given in ChEMBL document CHEMBL1123021, “3-Amino-beta-carboline derivatives and the benzodiazepine receptor. Synthesis of a selective antagonist of the sedative action of diazepam” (J Med Chem, 1985).

target: GABA-A receptor; anion channel; assay: Inhibition of [3H]- flunitrazepam binding to GABA-A Benzodiazepine receptor of rat cerebral cortex membranes; assay type: cell membranes, Membrane

IC50 [µM] | SMILES
62 | CS(=O)(=O)Nc1cc2c3ccccc3nc-2c[nH]1
0.071 | COC(=O)Nc1cc2c3ccccc3nc-2c[nH]1
6.3 | O=C(Nc1cc2c3ccccc3nc-2c[nH]1)C(F)(F)F
4 | CC(=O)Nc1cc2c3ccccc3nc-2c[nH]1
25 | Nc1cc2c(cn1)[nH]c1ccccc12
4.7 | O=CNc1cc2c3ccccc3nc-2c[nH]1
0.08 | CCOC(=O)Nc1cc2c3ccccc3nc-2c[nH]1
0.46 | CCNc1cc2c3ccccc3nc-2c[nH]1

SMILES | IC50 [µM]
CCOC(=O)c1cc2c(cn1)[nH]c1ccccc12 | 0.002
